The subject of this assay is 677734-321-R-J1-PDC complex spheroid viability. Kind of assay: Anticancer human tumor 677734-321-R-J1-PDC patient-derived soft tissue sarcoma cell line growth inhibition [POLQ]. To be noted: for viability, T/C: stronger effect = lower value. The protocol:
Multicellular complex tumor spheroid response to Polymerase (POL) inhibitors (novobiocin, ART-558, RP6685) in combination with a variety of drugs and investigational agents in selected tumor cell lines
The POL inhibitors (novobiocin, ART-558, and RP6685) were evaluated both individually and in combination with standard of care and investigational anticancer small molecules within a complex spheroid model of solid tumors. . Complex spheroids include a stromal component modeled by human endothelial cells (HUVEC) and fibroblasts modeled by human mesenchymal stem cells (MSCs). The concentration ranges selected for each drug and investigational agent were based upon clinically achievable concentrations if the clinical Cmax of the agent was known.
Compounds. The drugs and investigational agents: novobiocin (NSC847541), ART-558 (NSC835418), RP-6685 (NSC848927), peposertib (NSC802822), ceralasertib (NSC780249), elimusertib (NSC800525), camonsertib (NSC841442), AZD-1390 (NSC803789), olaparib (NSC753686), talazoparib (NSC767125), rucaparib (NSC756644), sotorasib (NSC818433), MRTX-1133 (NSC836407), SN-38 (NSC673596), topotecan (NSC609699), epotoside (NSC141540), doxorubicin (NSC123127), gemcitabine (NSC613327), 5-fluorouracil (NSC19893), paclitaxel (NSC125973), vemurafenib (NSC761431), MSA-2 (NSC828583), SN-011 (NSC837082), adavosertib (NSC754352), prexasertib (NSC758257), carboplatin (NSC241240) and oxaliplatin (NSC266046), were obtained from the National Cancer Institute (NCI) Developmental Therapeutics Program Chemical Repository (21). The FDA-approved anticancer drug set is available from the Developmental Therapeutics Program at https://dtp.cancer.gov/organization/dscb/obtaining/. […] The stock solutions were prepared in dimethyl sulfoxide (DMSO, Sigma-Aldrich, St. Louis, MO, cat. D2650), except for the platinum compounds which were prepared in saline (Quality Biological, Gaithersburg, MD, cat. 114-055-101), at 800-fold the tested concentration and stored at -70 degrees C prior to their use. All drugs and investigational agents were tested over a range starting from a high concentration at or near the clinical Cmax and decreasing in half-log increments. If the clinical Cmax for an agent had not been determined, the highest concentration tested was 10 microM, except for SN-38, which was tested at a high concentration of 1 microM.
Cell Culture. All cells were maintained in an incubator at 37 degrees C and 5% CO2 with 95% humidity. The PDC lines were cultured according to standard operating procedures established by the NCI PDMR (https://pdmr.cancer.gov). Table 3 of the manuscript, lists the cell lines along with the number of the three cell types plated to form the mct-spheroids and media for tumor cell growth. After thawing, all PDC lines, except 997537-175-T-J1-PDC and 415267-285-R-J2-PDC, were cultured in Matrigel-coated flasks prepared with a working solution of 1X Ham's F-12 nutrient mix, without supplementation (Thermo Fisher Scientific, cat. 11765054), 100 U/mL penicillin-streptomycin (Thermo Fisher Scientific, cat. 15140122), and 2.5% Matrigel (Corning Inc., Corning, NY, cat. 354248) for the first three passages. The two PDC lines 997537-175-T-J1-PDC and 415267-285-R-J2-PDC were cultured on uncoated flasks. The 857933-349-R-J2-PDC line was cultured in 6C/Colon 1B media containing advanced DMEM/F-12 (Thermo Fisher Scientific, cat. 12634028), 10 mM HEPES (Thermo Fisher Scientific, cat. 15630080), 1X GlutaMAX supplement (Thermo Fisher Scientific, cat. 35050061), 0.1 mg/mL primocin (InvivoGen, San Diego, CA, cat. ant-pm-2), 10% defined fetal bovine serum, heat inactivated (HyClone Laboratories Inc., Logan, UT, cat. SH30070.03HI), 50% L-WRN conditioned media (ATCC, cat. CRL-3276), 1.25 mM N-Acetyl-L-cysteine (Sigma-Aldrich, cat. A9165), 10 mM nicotinamide (Sigma-Aldrich, cat. N0636), 1X B-27 supplement (Thermo Fisher Scientific, cat. 17504044), 1X N-2 supplement (Thermo Fisher Scientific, cat. […]

Usually viability, T/C stands for the ratio of treated to control. In general, IC50 refers to the midpoint of a concentration-inhibition curve.

Values joined by “and” are separate entries in the source; they are usually repeats but may differ in a detail not shown here. Equal values may be shown once. A value given as a limit tells only on which side of the number the result lay.
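Further: spheroids exposed to compounds for one week.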

Consider `O=C(Nc1ccc(O)c(NS(=O)(=O)c2ccc(F)cc2)c1)c1ccc(-c2ccccc2)cc1`, for which the viability, T/C (compound 0.0316 µM) was 96.9% and 104% and 110%; the viability, T/C (compound 0.1 µM) was 100% and 107% and 109%; the viability, T/C (compound 0.316 µM) was 108% and 112% and 104%; the viability, T/C (compound 1 µM) is 94.2% and 98.8% and 106%; the viability, T/C (compound 3.16 µM) was 68.3% and 79.4% and 89.6%; the viability, T/C (compound 10 µM) was 21.9% and 20.6% and 32.8%. Further, under “curve of compound”, the IC50 is 4.96 µM and 5.6 µM and 7.07 µM.
With `C#Cc1c(F)ccc2cc(O)cc(-c3ncc4c(N5CC6CCC(C5)N6)nc(OCC56CCCN5CC(F)C6)nc4c3F)c12` (stereo not given), the viability, T/C was 109% and 110% and 105% (compound 0.0316 µM); 105% and 104% and 101% (compound 0.1 µM); 99.2% and 115% and 96.7% (compound 0.316 µM); 105% and 96.8% and 101% (compound 1 µM); 107% and 113% and 97.8% (compound 3.16 µM); 102% (2×) and 80.7% (compound 10 µM). For the same compound, the IC50 (curve of compound) is more than 10 µM.
As for `COc1cccc2c1C(=O)c1c(O)c3c(c(O)c1C2=O)CC(O)(C(=O)CO)CC3OC1CC(N)C(O)C(C)O1` (stereo not given), the viability, T/C (compound 0.0316 µM) was 86.2% and 48.1% and 72.7%; the viability, T/C (compound 0.1 µM) is 48.5% and 29% and 48.7%; the viability, T/C (compound 0.316 µM) was 8% and 4.1% and 6.65%; the viability, T/C (compound 1 µM) was 0.91% and 1.65%; the viability, T/C (compound 3.16 µM) is 2.59% and 1.37% and 2.03%; the viability, T/C (compound 10 µM) is 3.4% and 0.66% and 2.59%. The IC50 (curve of compound) is 0.0956 µM and < 0.0316 µM and 0.0938 µM.
For the compound `Cn1ncnc1[C@H]1c2n[nH]c(=O)c3cc(F)cc(c23)N[C@@H]1c1ccc(F)cc1`, the viability, T/C reads like this: (compound 0.000316 µM) 101% and 87.2% and 106%; (compound 0.001 µM) 104% and 93.2% and 95.4%; (compound 0.00316 µM) 97.4% and 107% and 117%; (compound 0.01 µM) 105% and 94.7% and 104%; (compound 0.0316 µM) 98.8% and 94.5% and 106%; (compound 0.1 µM) 93% and 75.8% and 93.5%. Further, where the note is “curve of compound”, the IC50 is more than 0.1 µM.
As for `C#Cc1c(F)ccc2cc(O)cc(-c3ncc4c(N5CC6CCC(C5)N6)nc(OCC56CCCN5CC(F)C6)nc4c3F)c12` (stereo not given) + Cc1cccc(N(C)C(=O)C2C(O)CCN2c2nc(C)cc(C(F)(F)F)c2C#N)c1, the IC50 (curve of first compound, second compound 0.0316 µM) was more than 10 µM; the IC50 (curve of first compound, second compound 0.1 µM) was more than 10 µM; the IC50 (curve of first compound, second compound 0.316 µM) was more than 10 µM; the IC50 (curve of first compound, second compound 1 µM) is more than 10 µM; the IC50 (curve of first compound, second compound 3.16 µM) is more than 10 µM; the IC50 (curve of first compound, second compound 10 µM) was more than 10 µM. Further, the viability, T/C by setting is: (second compound 0.0316 µM, first compound 0.0316 µM) 110%; (second compound 0.0316 µM, first compound 0.1 µM) 101%; (second compound 0.0316 µM, first compound 0.316 µM) 108%; (second compound 0.0316 µM, first compound 1 µM) 103%; (second compound 0.0316 µM, first compound 3.16 µM) 101%; (second compound 0.0316 µM, first compound 10 µM) 102%. Besides, the viability, T/C runs as follows: (second compound 0.1 µM, first compound 0.0316 µM) 111%; (second compound 0.1 µM, first compound 0.1 µM) 106%; (second compound 0.1 µM, first compound 0.316 µM) 105%; (second compound 0.1 µM, first compound 1 µM) 100%; (second compound 0.1 µM, first compound 3.16 µM) 106%; (second compound 0.1 µM, first compound 10 µM) 107%. The viability, T/C is, setting by setting: (second compound 0.316 µM, first compound 0.0316 µM) 118%; (second compound 0.316 µM, first compound 0.1 µM) 97.5%; (second compound 0.316 µM, first compound 0.316 µM) 100%; (second compound 0.316 µM, first compound 1 µM) 100%; (second compound 0.316 µM, first compound 3.16 µM) 110%; (second compound 0.316 µM, first compound 10 µM) 104%. Moreover, the viability, T/C reads like this: (second compound 1 µM, first compound 0.0316 µM) 105%; (second compound 1 µM, first compound 0.1 µM) 97%; (second compound 1 µM, first compound 0.316 µM) 109%; (second compound 1 µM, first compound 1 µM) 100%; (second compound 1 µM, first compound 3.16 µM) 107%; (second compound 1 µM, first compound 10 µM) 102%. Further, the viability, T/C (second compound 3.16 µM, first compound 0.0316 µM) was 98.1%; the viability, T/C (second compound 3.16 µM, first compound 0.1 µM) was 102%; the viability, T/C (second compound 3.16 µM, first compound 0.316 µM) is 103%; the viability, T/C (second compound 3.16 µM, first compound 1 µM) is 109%; the viability, T/C (second compound 3.16 µM, first compound 3.16 µM) is 101%; the viability, T/C (second compound 3.16 µM, first compound 10 µM) was 107%. Also, the viability, T/C was 99.9% (second compound 10 µM, first compound 0.0316 µM); 104% (second compound 10 µM, first compound 0.1 µM); 107% (second compound 10 µM, first compound 0.316 µM); 99.2% (second compound 10 µM, first compound 1 µM); 103% (second compound 10 µM, first compound 3.16 µM); 98.8% (second compound 10 µM, first compound 10 µM).

Values taken from PubChem BioAssay AID1963842 (Molecular Pharmacology Branch, DTP, NCI, 2024).
